Measurements: paper PMC7153024, “New 8-Nitroquinolinone Derivative Displaying Submicromolar in Vitro Activities against Both Trypanosoma brucei and cruzi” (ACS Medicinal Chemistry Letters, 2020)
Several values for one entry are separate records, joined by “and”; a condition that tells them apart may be missing. Equal entries are not always repeated. Entries after “also recorded” stand apart in the source; their conditions may differ. Where two headings read alike, the source gives them in different places.

Assays:
[1] = system: L. infantum axenic amastigotes; conditions: previously reported pharmacophore and hit compounds; read-out: L. infantum axenic amastigote EC50; cited from earlier work
[2] = system: T. brucei brucei trypomastigotes; conditions: previously reported pharmacophore and hit compounds; cited from earlier work
[3] = system: HepG2 cell line; conditions: read-out: Cytotoxicity HepG2 CC50, cited from earlier work
[4] = Redox potentials by cyclic voltammetry in DMSO; conditions: 13 vs hit 2; 9, hit 1 and 2 vs pharmacophore; 10 vs 9; 5 vs 2
[5] = system: T. brucei brucei trypomastigotes; experiment: Antitrypanosomal activity on T. brucei brucei trypomastigotes (AnTat 1.9, Alamar Blue); format: cell-based, Trypanosoma brucei brucei; conditions: for Selectivity index regarding T. b. brucei: HepG2 CC50 versus T. b. brucei EC50; for EC50: Trypanosoma brucei, read-out: T. b. brucei trypomastigotes EC50; for Antitrypanosomal activity against T. b. brucei (in words): trypomastigotes
[6] = in vitro; conditions: human, Cytotoxicity HepG2 CC50
[7] = system: HepG2 cell line; conditions: human, 72 h
[8] = system: human albumin; experiment: Human albumin binding assay; format: in vitro ADME
Method: are kept at 4 °C for immediate analysis or placed at -80 °C in case of postponement of the analysis.
Controls (t0 and tfinal) in triplicate are prepared by incubation of the internal standard with microsomes denatured by acetonitrile. The LC-MS used for this study is a Waters® Acquity I-Class / Xevo TQD, equipped with a Waters® Acquity BEH C18 column, 50 x 2.1 mm, 1.7 μm. The mobile phases are (A) […]
The injection volume is 1 µL and […]
the flow rate is 600 µL/min.
98% (B); […]; 2.6 < t < 4 min, 2% (B). Compound 8-bromo-6- […]
chloro-3-nitro-2-(phenylsulfonylmethyl)imidazo[1,2-a]pyridine is used as internal standard. The quantification of each compound is obtained by converting the average of the ratios of the analyte/internal standard surfaces to the percentage of consumed product. The ratio of the control at t0 corresponds to 0% of product consumed. The calculation of the half-life (t1/2) of each compound in the […]
presence of microsomes is done according to the equation: . Where k is the first-order t1=k […]
degradation constant (the slope of the logarithm of compound concentration versus incubation time).
The intrinsic clearance in vitro (Cl int expressed in μL/min/mg) is calculated according to the equation:
Clint= [microsomes]. […]

[9] = PAMPA assay using a blood-brain barrier (BBB) model; format: in vitro ADME; conditions: tested concentration 100 µM, pH 7.4
[10] = system: L. infantum axenic amastigotes; experiment: Antileishmanial activity on L. infantum axenic amastigotes; format: cell-based, Leishmania infantum; conditions: for Activity toward L. infantum (in words): axenic amastigotes
Method: Experiments were performed at room temperature
The supporting electrolyte
The redox potentials measured (V/SCE) correspond […]
in a ventilated flask to transform promastigotes into axenic amastigotes. The amastigote stage was checked both by electron microscopy (short flagellum with small bulbous tip extending beyond a spherical cell body) and RT-PCR for confirming the overexpression of ATG8 and amastin genes in amastigotes, compared to promastigotes. The effects of the tested compounds on the growth of L. infantum axenic amastigotes were assessed as follows. L. infantum amastigotes were incubated at a density of 2 × 10^6 parasites/mL in sterile 96-well plates with various concentrations of compounds dissolved in DMSO (final concentration less than 0.5% v/v), in duplicate. Appropriate controls DMSO, amphotericin B, miltefosine and fexinidazole (reference drugs purchased from Sigma Aldrich) were added to each set of experiments. After a 48 h incubation period at 37 °C, each plate-well was then microscopically-examined to detect any precipitate formation. To estimate the luciferase activity of axenic amastigotes, 80 µL of each well were transferred to white 96-well plates, Steady Glow® reagent (Promega) was added according to manufacturer's instructions, and plates were incubated for 2 min. The luminescence was measured in Microbeta Luminescence Counter (PerkinElmer). Efficient […]
metabolic activity of L. infantum amastigotes compared to control. EC 50 values were calculated by non- […]
values represent the mean of three independent experiments.
Antileishmanial activity on L. donovani promastigotes NTR1 and NTR2 over-expressing strain.
Cell lines and culture conditions: The clonal Leishmania donovani cell line LdBOB (derived from MHOM/SD/62/1S-CL2D) was grown as promastigotes at 26 °C in modified M199 media, as previously described.[2] LdBOB promastigotes overexpressing NTR1 (LinJ.05.0660) and NTR2 (LinJ.12.0730) were grown in the presence of nourseothricin (100 µg/mL). To examine the effects of test compounds on growth, triplicate promastigote cultures were seeded with 5 × 10^4 parasites/mL. Parasites were grown in 10 ml cultures in the presence of drug for 72 h, after which 200 μL aliquots of each culture were added to 96-well plates, 50 μM resazurin was added to each well and fluorescence (excitation of 528

[11] = design: method as in PMID 21200426; conditions: cited from earlier work
[12] = system: Salmonella typhimurium strains; conditions: cited from earlier work
[13] = system: Trypanosoma brucei brucei trypomastigotes wild type; experiment: T. brucei trypomastigotes, wild type strain (S427); format: cell-based
Method: Cells overexpressing NTR were
Cell densities were determined after culture for 72 h, as previously described. EC50 values were determined using GraFit as described above.
Cytotoxic evaluation on HepG2 cell line.
Briefly, cells (1 × 10^5 cells/mL) in 100
Each plate-well was then microscope-examined […]
for 2 h at 37 °C and 5% CO2. […]
added to dissolve the resulting formazan crystals. Plates were shaken vigorously (300 rpm) for 5 min.

[14] = system: HepG2 cell line; experiment: Alkaline comet assay on HepG2 cells; format: cell-based, human; conditions: HepG2, 1 and 10 μM, 2 or 72 h of incubation
Text: Even though many safe nitroaromatic molecules are today on the market (for example, antiprotozoal 5-nitroimidazoles such as metronidazole, several antihypertensive dihydropyridines like nicardipine, some benzodiazepines like loprazolam, anti-Parkinson’s catechol O-methyltransferase (COMT) inhibitors like entacapone, antiandrogens like flutamide, anti-inflammatory nimesulide, immunomodulating azathioprine, anticoagulant acenocoumarol, anthelminthic niclosamide, etc.) or in clinical trials (for instance, delamanid), drugs including a nitroaromatic moiety suffer from a bad reputation as possible mutagenic or genotoxic molecules, which narrows their pharmaceutical development.[29] The Ames test is the most commonly used assay to evaluate the mutagenic potential of compounds, using Salmonella typhimurium strains. […] Thus it is accepted that the comet assay or the micronucleus assay are more pertinent methods to evaluate the genotoxic potential of nitroaromatic compounds. For example, fexinidazole is positive in the Ames test but negative in the micronucleus assay.[31] A comet assay was then performed on the HepG2 cell line with hit compound 12, using methylmethanesulfonate (MMS) as a positive control (see the Supporting Information).
Electrophoresis (with a solution which contained
28 V (resulting in 0.8 V/cm).
After staining with SYBR®
Prague Czech Republic). […] The median […]

[15] = In vivo pharmacokinetics in the mouse after oral administration; conditions: oral 25 mg/kg
Method: Finally, the in vivo pharmacokinetic parameters were determined in the mouse, after oral administration at 25 mg/kg in a mixture of 5% Tween 80 and 95% of 0.5% carboxymethylcellulose in water, by using the QuEChERS method.[32] Monolix Lixoft software was used to analyze the data by a noncompartmental model to fit pharmacokinetics parameters.[33] […]
acetonitrile with 0.1% formic acid. […] The […]
decrease to 2% (B); 2.6 < t < 4 min, 2% (B). Carbamazepine, oxazepam, warfarine and diclofenac are […]
The unbound fraction (fu) is […]
internal standard (propranolol 200 nM).
= 350 μL and Vplasma = 200 μL).
All animals were kept under the same
3, 6, 9, 12, and 24h after administration. Blood samples were stored frozen until required for assay.
Sample preparation for spectrometry analysis
Megazol was used like the internal standard (IS). LC-MS Optima grade Acetonitrile (ACN) and […]
sesquihydrate) were supplied by VWR.

[16] = Tolerance in the mouse after oral administration
[17] = female, Swiss, whole blood of mouse, n = 4

For `O=C(O)c1ccc(-c2cc3cccc([N+](=O)[O-])c3[nH]c2=O)cc1` [Hit 2], the EC50 [1] is listed as > 100 µM.

In the case of `O=c1[nH]c2c([N+](=O)[O-])cccc2cc1Br` [Hit 1], the EC50 [1] is listed as 7.1 ± 1.5 µM, the EC50 [2] is listed as 1.9 ± 0.4 µM and the CC50 ([3]; previously reported pharmacophore and hit compounds) is listed as 92 ± 13 µM. The “Shift of the E° value versus the comparator compound” value (shortened to “Shift”) [4] was “+0.09 V”.

With `O=c1[nH]c2c([N+](=O)[O-])cc(Br)cc2cc1Br` [Compound 10] the “Selectivity index regarding T. b. brucei” value [5] was > 200, the EC50 [5] was 0.012 to 0.05 µM and the CC50 at 72 h [6] was 17 µM. For the same compound, the “Shift” value [4] was “+0.03 V”.

Compound `COc1cccc2c1C(=O)c1c(O)c3c(c(O)c1C2=O)C[C@@](O)(C(=O)CO)C[C@@H]3O[C@H]1C[C@H](N)[C@H](O)[C@H](C)O1` [Doxorubicin, reference compound] has a CC50 [7] of 0.2 ± 0.02 µM.

For `O=c1ccc2cc(Br)cc([N+](=O)[O-])c2[nH]1` [Compound 9], the “Selectivity index regarding T. b. brucei” value [5] was > 200, the “Times more active than 3-bromo-position isomer (hit 1)” value ([5]; T. b. brucei trypomastigotes) was 27 and the “Times more active than the 8-nitroquinolin-2(1H)-one pharmacophore” value ([5]; T. b. brucei trypomastigotes) was 334. The CC50 at 72 h [6] was 28 to 41 µM and the “Shift” value [4] was “+0.14 V”.

For `O=c1[nH]c2c([N+](=O)[O-])cccc2cc1Cl` [A, 3-chloro-8-nitroquinolin-2(1H)-one], the CC50 ([3]; 3-chloro analogue A) is given as 85 ± 4 µM.

In the case of `O=C(O)c1ccc(-c2cc3cc(Br)cc([N+](=O)[O-])c3[nH]c2=O)cc1` [Compound 13], the “Selectivity index regarding T. b. brucei” value [5] is reported as > 200, the Albumin binding assay [8] is reported as > 99% and the “BBB PAMPA assay Pe” value [9] is reported as 1.27 ×10⁻⁶ cm/s and 1.27 ± 0.09 ×10⁻⁶ cm/s. For the same compound, the “Shift” value [4] was “+0.16 V”.

For `O=c1ccc2cc(C(F)(F)F)ccc2[nH]1` [Compound 1], the “Activity toward L. infantum (in words)” value [10] was “inactive” and the “Antitrypanosomal activity against T. b. brucei (in words)” value (“Antitrypanosomal activity” for short) [5] was “inactive”.

For `O=c1[nH]c2ccc(C(F)(F)F)cc2cc1Cl` [Compound 3], the “Activity toward L. infantum (in words)” value [10] was “inactive” and the “Antitrypanosomal activity” value [5] was “inactive”.

In the case of `O=c1[nH]c2c([N+](=O)[O-])cc(C(F)(F)F)cc2cc1Br` [Compound 7], the “Selectivity index (antileishmanial)” value ([10]; regarding L. infantum, HepG2) is reported as > 10, the “Selectivity index regarding T. b. brucei” value [5] is reported as > 200 and the “BBB PAMPA assay Pe” value [9] is reported as 45.03 ×10⁻⁶ cm/s and 45.03 ± 17.05 ×10⁻⁶ cm/s.

For `CSc1ccc(OCc2ncc([N+](=O)[O-])n2C)cc1` [Fexinidazole], the Micronucleus assay [11] is given as “negative” and the Ames test [12] is given as “positive”.

In the case of `O=c1[nH]c2c([N+](=O)[O-])cc(Cl)cc2cc1Cl` [Compound 11], the “Selectivity index regarding T. b. brucei” value [5] is reported as > 200.

With `O=c1ccc2cc(C(F)(F)F)cc([N+](=O)[O-])c2[nH]1` [Compound 2] the CC50 at 72 h [6] was 28 to 41 µM and the “Shift” value [4] was “+0.15 V”.

In the case of `COc1ccc2cc(C(F)(F)F)cc([N+](=O)[O-])c2n1` [Compound 5], the “Activity toward L. infantum (in words)” value [10] is reported as “inactive” and the “Shift” value [4] is reported as −0.36 V.

In the case of `O=c1[nH]c2ccc(C(F)(F)F)cc2cc1Br` [Compound 4], the “Activity toward L. infantum (in words)” value [10] is reported as “inactive” and the “Antitrypanosomal activity” value [5] is reported as “inactive”.

With `O=c1[nH]c2c([N+](=O)[O-])cc(Br)cc2cc1Cl` [Compound 12] the “Times more active than 3-chloro-analogue A” value ([5]; T. b. brucei trypomastigotes) was 100, the EC50 [5] was 0.012 to 0.05 µM and the “Activity compared with nifurtimox against T. b. brucei” value [13] was “six times more active than nifurtimox”. The “BBB PAMPA assay Pe” value [9] was 40.51 ×10⁻⁶ cm/s and 40.51 ± 6.93 ×10⁻⁶ cm/s, the “Comet assay (genotoxicity)” value [14] was “not genotoxic; also recorded: lack of genotoxicity; also recorded: Negative” and the half-life at 24 h ([15]; female, Swiss, plasma, mouse, read-out: Plasmatic half life (converted)) was 2.9 h. It also gave an AUC(0-inf) [15, 17] of 123 µg·h/mL, a Cmax [15, 17] of 17400 ng/mL and a Tmax [15, 17] of 1.5 h. For the same compound, the half-life [15, 17] was 2.87 h, the Clairance ([15]; whole blood of mouse, n = 4) was 0,00768 mL/h and the “Times more cytotoxic than reference drugs” value [7] was “about 10”. The “Tolerance, repeated dose” value ([16]; 25 mg/kg once daily for 5 days) was “well tolerated without any adverse effect noted”, the “Organ lesions after euthanasia” value ([16]; kidney, liver, brain, heart, lung) was “no lesions were found” and the “Tolerance, oral dose” value ([16]; once daily oral dose at 25 or 50 mg/kg) was “well tolerated”.

In the case of `Nc1cc(C(F)(F)F)cc2cc(Br)c(=O)[nH]c12` [Compound 8], the “Activity toward L. infantum (in words)” value [10] is reported as “inactive”.
